Calls of active or inactive are those of the source.
Experiments:
Bcl-2-related protein A1 [1] = molecular target: T1, Bcl-2-related protein A1 (Mus musculus, UniProt Q07440); assay: Bfl-1 inhibitors blocking BH3 peptide binding, confirmation, biochemical, TR-FRET, mouse Bfl-1 (AID 621);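 further: TR-FRET binding of GST-Bfl-1 to FITC-labelled Bid peptide via terbium antibody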
T1 sequence (Q07440 whole entry): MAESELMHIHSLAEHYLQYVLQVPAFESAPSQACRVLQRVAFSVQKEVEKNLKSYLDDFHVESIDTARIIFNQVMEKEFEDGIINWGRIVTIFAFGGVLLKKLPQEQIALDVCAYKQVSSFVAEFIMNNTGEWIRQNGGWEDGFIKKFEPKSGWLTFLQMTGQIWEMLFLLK

Bcl-2-related protein A1 [2] = molecular target: T1, Bcl-2-related protein A1; assay: Bfl-1 inhibitors, primary screen, biochemical, fluorescence polarization, FITC-Bid, mouse (AID 432)
[3] = Luminescence Cell-Based Dose Confirmation HTS to Identify Activators of 5'UTR Stem-Loop Driven Alpha-Synuclein mRNA Translation in H4 Neuroglioblastoma Cells. [Related pubchem assays: 1829 (Project Summary), 1814 (Primary HTS)]; type: functional
H4 = assay: Luminescence Cell-Based Dose Response HTS to Identify Activators of 5'UTR Stem-Loop Driven Prion Protein mRNA Translation in H4 Neuroglioblastoma Cells. [Related pubchem assays: 1829 (Project Summary), 1814 (Primary HTS)]; type: functional; conditions: Homo sapiens
[4] = Luminescence Cell-Based Dose Response HTS to Identify Activators of Luciferase Translation or Activity in H4 […] Cells. [Related pubchem assays: 1829 (Project Summary), 1814 (Primary HTS)]; type: functional
[5] = molecular target: Mitogen-activated protein kinase 10 (Homo sapiens, UniProt P53779); assay: Dose response biochemical screening assay for inhibitors of c-Jun N-Terminal Kinase 3 (JNK3). [Related pubchem assays: 746 ]
Bcl-2-like protein 10 = molecular target: T2, Bcl-2-like protein 10 (Homo sapiens, UniProt Q9HD36); assay: displacers of TR3 peptide from Bcl-B, primary screen, selectivity assay for Bfl-1 inhibitor project, biochemical, fluorescence polarization, FITC-TR3 peptide (AID 748);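 further: fluorescence polarization from a fluorescein-labelled TR3 peptide binding purified Bcl-B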
T2 sequence (Q9HD36 whole entry): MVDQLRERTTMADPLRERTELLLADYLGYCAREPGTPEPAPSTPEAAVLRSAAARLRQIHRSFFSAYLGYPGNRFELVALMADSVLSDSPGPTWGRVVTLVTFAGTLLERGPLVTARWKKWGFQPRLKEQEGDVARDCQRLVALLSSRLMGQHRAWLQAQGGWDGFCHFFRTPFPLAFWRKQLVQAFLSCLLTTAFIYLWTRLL

[6] = molecular target: DNA dC->dU-editing enzyme APOBEC-3A (Homo sapiens, UniProt P31941); assay: Dose Response confirmation of small molecule APOBEC3A DNA Deaminase Inhibitors via a fluorescence-based single-stranded DNA deaminase assay. [Related pubchem assays (depositor defined):AID493011, AID493024]; type: functional
[7] = molecular target: DNA dC->dU-editing enzyme APOBEC-3G (Homo sapiens, UniProt Q9HC16); type: functional;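 further: Dose-response counterscreen measuring inhibition of APOBEC3G DNA deaminase activity, run while confirming APOBEC3A inhibitors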
14-3-3 protein gamma = 14-3-3 protein gamma (Homo sapiens, UniProt P61981); assay: modulators of 14-3-3 gamma client binding – dose response (AID 711); type: functional
[8] = cytotoxicity toward DRD oncogenic fibroblasts, dose response, cell-based, non-viral oncogenic, luminescence (AID 1934); type: functional; conditions: Homo sapiens
BJ [9] = assay: cytotoxicity toward BJ-TERT-LT-ST fibroblasts, dose response, cell-based, RAS-independent, luminescence (AID 1935); type: functional; conditions: Homo sapiens;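 further: BJ fibroblasts immortalized with TERT plus LT and ST oncogenes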
Vero [10] = assay: West Nile virus antiviral activity, cell-based, CPE readout (AID 1621); type: functional; conditions: Chlorocebus sabaeus
BJ [11] = assay: cytotoxicity toward Ras-transformed BJeLR fibroblasts, dose response, cell-based, alamar blue fluorescence, cherrypicked samples (AID 2631); type: functional; conditions: Homo sapiens;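 further: confirmatory dose-response assay in RAS-dependent BJ fibroblasts engineered with TERT, LT and ST, with cytotoxicity read by fluorescence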
Vero [12] = assay: host cell cytotoxicity of antiviral hits, dose response, cytotoxicity control for West Nile virus antiviral project, secondary assay (AID 1650); type: functional; conditions: Chlorocebus sabaeus
BJ [13] = assay: cells; type: functional, cell-based; conditions: Homo sapiens
BJ [14] = assay: cytotoxicity toward BJ-TERT fibroblasts, dose response, cell-based, RAS-independent, luminescence (AID 1933); type: functional; conditions: Homo sapiens
Vero [15] = assay: cells; type: functional, cell-based; conditions: Chlorocebus sabaeus
Vero [16] = assay: cells; type: functional; conditions: Chlorocebus sabaeus
Procathepsin L = Procathepsin L (Homo sapiens, UniProt P07711); assay: cathepsin L inhibitors, dose response, counter-screen for M1/M17 aminopeptidase inhibitor project, biochemical, QFRET, 1536-well (AID 2214)
Protein RecA = molecular target: T3, Protein RecA (Mycobacterium tuberculosis, UniProt P9WHJ3); assay: Fluorescence Cell-Free Homogeneous Dose Retest to Identify Inhibitors of RecA-Intein Splicing Activity. [Related pubchem assays (depositor defined):AID2097, AID2223, AID489010, AID492950]; type: functional
T3 sequence (P9WHJ3 whole entry): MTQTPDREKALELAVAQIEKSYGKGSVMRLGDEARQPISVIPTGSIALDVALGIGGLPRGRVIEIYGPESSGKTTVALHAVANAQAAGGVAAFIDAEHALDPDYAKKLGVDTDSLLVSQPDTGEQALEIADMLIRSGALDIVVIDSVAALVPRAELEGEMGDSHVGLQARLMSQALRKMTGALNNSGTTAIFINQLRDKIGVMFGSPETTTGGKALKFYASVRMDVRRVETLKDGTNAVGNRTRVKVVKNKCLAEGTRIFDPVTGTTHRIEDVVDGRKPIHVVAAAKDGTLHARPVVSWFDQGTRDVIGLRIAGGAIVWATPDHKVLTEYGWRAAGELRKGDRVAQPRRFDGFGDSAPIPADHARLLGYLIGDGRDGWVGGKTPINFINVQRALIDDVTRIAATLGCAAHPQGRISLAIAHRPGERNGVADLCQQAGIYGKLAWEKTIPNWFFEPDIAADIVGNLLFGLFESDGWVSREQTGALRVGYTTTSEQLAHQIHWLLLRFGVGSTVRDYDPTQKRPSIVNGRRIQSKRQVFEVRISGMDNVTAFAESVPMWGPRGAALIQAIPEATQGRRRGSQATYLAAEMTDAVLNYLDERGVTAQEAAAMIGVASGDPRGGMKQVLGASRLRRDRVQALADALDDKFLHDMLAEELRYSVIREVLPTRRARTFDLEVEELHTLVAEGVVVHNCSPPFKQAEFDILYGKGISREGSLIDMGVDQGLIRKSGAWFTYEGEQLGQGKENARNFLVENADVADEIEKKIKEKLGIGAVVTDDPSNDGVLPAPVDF

Leucine aminopeptidase = molecular target: T4, Leucine aminopeptidase (Plasmodium falciparum 3D7, UniProt Q8IL11); assay: P. falciparum M17LAP inhibitors, primary screen, biochemical, fluorogenic H-Leu-NHMec substrate, 1536-well (AID 1619); type: functional
T4 sequence (Q8IL11 whole entry): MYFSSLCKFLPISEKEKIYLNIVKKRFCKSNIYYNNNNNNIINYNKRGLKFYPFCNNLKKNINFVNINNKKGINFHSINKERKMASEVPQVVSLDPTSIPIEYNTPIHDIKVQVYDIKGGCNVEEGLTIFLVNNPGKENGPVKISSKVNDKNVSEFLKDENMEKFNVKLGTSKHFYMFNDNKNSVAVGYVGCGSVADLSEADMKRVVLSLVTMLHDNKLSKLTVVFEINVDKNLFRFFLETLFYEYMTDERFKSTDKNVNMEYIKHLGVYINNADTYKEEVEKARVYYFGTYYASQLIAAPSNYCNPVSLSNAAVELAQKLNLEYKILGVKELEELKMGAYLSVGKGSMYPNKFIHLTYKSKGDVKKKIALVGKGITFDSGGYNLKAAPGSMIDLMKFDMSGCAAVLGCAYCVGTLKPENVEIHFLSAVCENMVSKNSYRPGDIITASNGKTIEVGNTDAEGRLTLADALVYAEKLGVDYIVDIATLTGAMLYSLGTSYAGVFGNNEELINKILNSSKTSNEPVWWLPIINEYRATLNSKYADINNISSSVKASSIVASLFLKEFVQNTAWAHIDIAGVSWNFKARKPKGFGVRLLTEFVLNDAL

[17] = molecular target: T5, Replicative DNA helicase DnaB (Mycobacterium tuberculosis, UniProt P9WMR3); assay: DnaB intein splicing inhibitors, dose response, biochemical, cell-free fluorescence (AID 449749); type: functional
T5 sequence (P9WMR3 whole entry): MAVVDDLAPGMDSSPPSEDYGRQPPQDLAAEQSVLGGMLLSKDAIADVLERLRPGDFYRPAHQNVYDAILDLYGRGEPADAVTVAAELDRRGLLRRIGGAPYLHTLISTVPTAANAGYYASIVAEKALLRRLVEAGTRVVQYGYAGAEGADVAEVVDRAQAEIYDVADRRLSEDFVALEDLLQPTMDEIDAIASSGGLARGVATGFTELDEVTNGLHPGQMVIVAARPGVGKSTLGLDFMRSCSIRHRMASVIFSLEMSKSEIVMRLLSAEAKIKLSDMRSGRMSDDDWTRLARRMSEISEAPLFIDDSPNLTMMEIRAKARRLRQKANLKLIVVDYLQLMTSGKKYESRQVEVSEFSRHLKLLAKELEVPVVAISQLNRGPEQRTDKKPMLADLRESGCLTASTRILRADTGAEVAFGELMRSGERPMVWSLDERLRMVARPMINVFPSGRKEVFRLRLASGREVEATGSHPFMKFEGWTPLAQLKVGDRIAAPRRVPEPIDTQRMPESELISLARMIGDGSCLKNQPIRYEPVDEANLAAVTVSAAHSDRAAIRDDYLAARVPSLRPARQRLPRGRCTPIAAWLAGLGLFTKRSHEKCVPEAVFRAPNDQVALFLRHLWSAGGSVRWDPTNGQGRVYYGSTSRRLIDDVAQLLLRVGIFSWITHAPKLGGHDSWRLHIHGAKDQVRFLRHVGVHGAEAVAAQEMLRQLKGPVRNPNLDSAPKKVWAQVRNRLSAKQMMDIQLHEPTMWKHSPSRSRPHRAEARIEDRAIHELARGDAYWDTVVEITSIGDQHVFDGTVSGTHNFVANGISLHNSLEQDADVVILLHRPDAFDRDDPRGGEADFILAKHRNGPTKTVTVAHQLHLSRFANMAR

Aspartyl aminopeptidase = Aspartyl aminopeptidase (Plasmodium falciparum 3D7, UniProt Q8I2J3); assay: Counterscreen for inhibitors of M1 and M17 aminopeptidases: QFRET-based biochemical high throughput dose response assay for inhibitors of the Plasmodium falciparum M18 Aspartyl Aminopeptidase (PFM18AAP). [Related PubChem assays: 1619 (Screening assay (M17LAP inhibitors).), 1445 (Screening assay (M1AAP inhibitors).)]
[18] = growth suppression of PTEN-null colon cells, dose response, cell-based, HCT116 PTEN knockout (AID 1047); type: functional;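 further: HCT116 colon tumor cells with PTEN knocked out; cells exposed to compound for 60 hours before readout; potency for loss of cell viability measured by luminescence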
[19] = molecular target: Muscarinic acetylcholine receptor M1 (Rattus norvegicus, UniProt P08482); assay: rat M1 positive allosteric modulator potency, dose response, cell-based, calcium mobilization, CHO-K1, ACh EC20 (AID 2425); type: functional
[20] = growth suppression of beta-catenin-knockout colon cells, dose response, cell-based, HCT116, human colon tumor (AID 1045); type: functional;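 further: HCT116 colon tumor cells with beta catenin knocked out; cells exposed to compound for 60 hours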
[21] = Luminescence Cell-Based Dose Response to Identify Activators of Luciferase Translation or Activity in H4-C Neuroglioblastoma Cells. [Related pubchem assays: 1829 (Project Summary), 1814 (Primary HTS)]; type: functional
[22] = Luminescence Cell-Based Dose Confirmation to Identify Activators of 5'UTR Stem-Loop Driven Alpha-Synuclein mRNA Translation in H4 Neuroglioblastoma Cells. [Related pubchem assays: 1829 (Project Summary), 1814 (Primary HTS)]; type: functional
[23] = Luminescence Cell-Based Dose Response to Identify Activators of 5'UTR Stem-Loop Driven Prion Protein mRNA Translation in H4-C Neuroglioblastoma Cells. [Related pubchem assays: 1829 (Project Summary), 1814 (Primary HTS)]; type: functional
[24] = molecular target: T6, Low molecular weight phosphotyrosine protein phosphatase (Homo sapiens, UniProt P24666); assay: LMPTP phosphatase inhibitors, dose response, biochemical, OMFP substrate, fluorescence intensity, set 2 (AID 743307); type: functional
[25] = molecular target: T6, Low molecular weight phosphotyrosine protein phosphatase; assay: LMPTP phosphatase inhibitors, colorimetric pNPP readout, dose response, orthogonal assay, biochemical, absorbance, pNPP substrate, LMPTP-A isoform, set 2 (AID 743308); type: functional

T6 sequence (P24666 whole entry, canonical isoform): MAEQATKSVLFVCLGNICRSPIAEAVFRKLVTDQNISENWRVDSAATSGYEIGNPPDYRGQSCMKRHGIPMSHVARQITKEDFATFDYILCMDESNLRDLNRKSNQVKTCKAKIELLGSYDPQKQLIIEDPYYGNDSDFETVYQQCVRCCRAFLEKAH
Muscarinic acetylcholine receptor M1, sequence (P08482 whole entry): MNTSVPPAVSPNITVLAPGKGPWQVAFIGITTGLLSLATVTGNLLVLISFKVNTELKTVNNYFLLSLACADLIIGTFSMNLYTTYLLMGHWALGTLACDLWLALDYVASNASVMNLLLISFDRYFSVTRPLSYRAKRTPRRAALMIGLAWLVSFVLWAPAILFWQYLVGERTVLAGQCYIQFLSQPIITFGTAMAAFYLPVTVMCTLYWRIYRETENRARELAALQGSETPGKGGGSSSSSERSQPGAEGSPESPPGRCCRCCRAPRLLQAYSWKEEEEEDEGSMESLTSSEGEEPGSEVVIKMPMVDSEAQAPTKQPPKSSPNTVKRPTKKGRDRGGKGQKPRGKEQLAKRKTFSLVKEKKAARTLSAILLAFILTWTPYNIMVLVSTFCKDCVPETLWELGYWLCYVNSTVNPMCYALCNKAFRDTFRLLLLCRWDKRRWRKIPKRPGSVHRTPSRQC
DNA dC->dU-editing enzyme APOBEC-3A, sequence (P31941 whole entry): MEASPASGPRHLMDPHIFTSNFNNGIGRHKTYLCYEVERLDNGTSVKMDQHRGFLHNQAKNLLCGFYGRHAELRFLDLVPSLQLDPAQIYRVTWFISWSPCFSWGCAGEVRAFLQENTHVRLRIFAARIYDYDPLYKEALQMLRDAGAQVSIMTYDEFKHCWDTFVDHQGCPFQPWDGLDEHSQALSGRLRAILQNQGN
14-3-3 protein gamma, sequence (P61981 whole entry): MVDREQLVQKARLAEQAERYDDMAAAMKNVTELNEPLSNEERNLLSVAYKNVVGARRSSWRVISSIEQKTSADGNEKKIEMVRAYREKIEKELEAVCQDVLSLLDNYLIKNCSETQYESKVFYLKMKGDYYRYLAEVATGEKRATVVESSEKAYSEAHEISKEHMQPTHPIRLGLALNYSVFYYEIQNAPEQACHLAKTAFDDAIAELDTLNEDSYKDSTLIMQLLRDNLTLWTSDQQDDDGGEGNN
Mitogen-activated protein kinase 10, sequence (P53779 whole entry): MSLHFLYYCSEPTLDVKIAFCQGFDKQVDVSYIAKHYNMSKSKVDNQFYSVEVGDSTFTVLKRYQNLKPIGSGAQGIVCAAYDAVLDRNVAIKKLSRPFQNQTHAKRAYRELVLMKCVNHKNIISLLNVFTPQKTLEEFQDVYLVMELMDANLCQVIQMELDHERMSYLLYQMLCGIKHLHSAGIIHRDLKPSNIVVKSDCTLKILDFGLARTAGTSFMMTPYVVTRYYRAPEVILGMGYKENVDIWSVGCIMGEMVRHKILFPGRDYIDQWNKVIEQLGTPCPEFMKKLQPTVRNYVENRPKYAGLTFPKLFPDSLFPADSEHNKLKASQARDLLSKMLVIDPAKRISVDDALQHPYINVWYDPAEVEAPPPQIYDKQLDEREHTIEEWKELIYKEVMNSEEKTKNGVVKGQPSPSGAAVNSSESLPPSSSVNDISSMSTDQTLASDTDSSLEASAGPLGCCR
Procathepsin L, sequence (P07711 whole entry): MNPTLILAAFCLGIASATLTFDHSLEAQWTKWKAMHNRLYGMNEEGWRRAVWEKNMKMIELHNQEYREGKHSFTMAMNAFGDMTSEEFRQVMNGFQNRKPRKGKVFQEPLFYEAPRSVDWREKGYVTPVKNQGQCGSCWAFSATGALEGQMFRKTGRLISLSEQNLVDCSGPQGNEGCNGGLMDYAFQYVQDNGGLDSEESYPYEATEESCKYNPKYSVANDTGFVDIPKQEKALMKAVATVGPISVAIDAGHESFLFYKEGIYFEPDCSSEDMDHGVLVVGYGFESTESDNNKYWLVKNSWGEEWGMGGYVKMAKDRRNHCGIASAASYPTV
Aspartyl aminopeptidase, sequence (Q8I2J3 whole entry): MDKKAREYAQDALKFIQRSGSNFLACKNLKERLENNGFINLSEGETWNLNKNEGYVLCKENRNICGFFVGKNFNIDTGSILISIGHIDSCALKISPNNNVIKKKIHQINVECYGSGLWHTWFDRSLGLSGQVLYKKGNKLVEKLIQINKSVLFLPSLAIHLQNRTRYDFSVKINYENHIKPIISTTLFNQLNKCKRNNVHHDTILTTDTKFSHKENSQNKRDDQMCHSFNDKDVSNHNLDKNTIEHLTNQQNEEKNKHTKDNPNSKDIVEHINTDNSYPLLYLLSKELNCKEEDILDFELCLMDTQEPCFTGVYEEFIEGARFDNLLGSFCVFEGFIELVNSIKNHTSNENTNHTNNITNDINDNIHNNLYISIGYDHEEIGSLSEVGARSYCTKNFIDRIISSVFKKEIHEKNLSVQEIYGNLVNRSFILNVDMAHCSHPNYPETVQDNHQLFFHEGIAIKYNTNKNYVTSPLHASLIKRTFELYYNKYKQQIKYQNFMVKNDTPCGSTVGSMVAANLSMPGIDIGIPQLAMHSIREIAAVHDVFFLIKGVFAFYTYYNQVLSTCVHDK
DNA dC->dU-editing enzyme APOBEC-3G, sequence (Q9HC16 whole entry): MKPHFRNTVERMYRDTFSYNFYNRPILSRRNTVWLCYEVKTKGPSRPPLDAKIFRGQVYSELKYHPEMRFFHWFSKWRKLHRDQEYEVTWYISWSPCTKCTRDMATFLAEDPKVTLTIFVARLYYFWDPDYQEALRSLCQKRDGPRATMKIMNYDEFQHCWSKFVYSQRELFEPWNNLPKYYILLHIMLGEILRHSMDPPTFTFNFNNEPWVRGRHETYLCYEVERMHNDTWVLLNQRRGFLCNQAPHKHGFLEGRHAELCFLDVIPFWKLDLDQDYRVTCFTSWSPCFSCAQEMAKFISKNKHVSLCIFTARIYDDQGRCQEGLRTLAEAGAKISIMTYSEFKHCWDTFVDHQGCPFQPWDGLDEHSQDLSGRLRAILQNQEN

OCCCc1nc2n(n1)C(c1cccs1)C=C(c1ccccc1)N2 (centres undefined)
IC50 (Bcl-2-related protein A1 [1]): > 100 µM (not active) | IC50 (Bcl-2-related protein A1 [2]): > 100 µM (not active)

CC1=CC(=C2C(=O)c3ccccc3C2=O)C=C(C)N1C
EC50 [3]: 53.3 µM (active) | EC50 (H4): 57.2 µM (active) | EC50 [4]: 29.3 µM (active) | IC50 [5]: 42.1 µM (not active)

Cc1nc2ccc(C(=O)O)cc2c2c1CC(C)S2 (centres undefined)
IC50 (Bcl-2-like protein 10): > 100 µM (inactive) | IC50 [6]: 16.2 µM (active) | IC50 [7]: 26.3 µM (active) | IC50 (14-3-3 protein gamma): 25.7 µM (active)

Cc1ccc(NC(=O)[C@H](Cc2c[nH]c3ccccc23)NC(=O)[C@@H]2Cc3ccccc3CN2)c(C)c1
EC50 [8]: 112 µM (inconclusive) | EC50 (BJ [9]): > 150 µM (not active) | IC50 (Vero [10]): 43.3 µM (active) | EC50 (BJ [11]): > 133 µM (inactive) | CC50 (Vero [12]): 12.5 µM (active) | EC50 (BJ [13]): 20.7 µM (active) | EC50 (BJ [14]): 21.1 µM (active) | IC50 (Vero [15]): 1.91 µM (active) | CC50 (Vero [16]): 15.9 µM (active)

CCOc1cccc(-c2cc(O)[nH]n2)c1
IC50 (Procathepsin L): > 59.6 µM (not active) | EC50 (Protein RecA): 0.695 µM (active) | IC50 (Leucine aminopeptidase): 1.25 µM (active) | AC50 [17]: 2.18 µM (active) | IC50 (Aspartyl aminopeptidase): > 73.5 µM (not active)

Cc1cc(NC(=O)CS(=O)(=O)c2cn(Cc3ccccc3Cl)c3ccccc23)no1
EC50 [18]: 41.3 µM (active) | EC50 [19]: 9.13 µM (active) | EC50 [20]: 72.8 µM (active)

Cc1nc2c(-c3ccccc3)cnn2c(N2CCOCC2)c1C
EC50 [21]: 0.246 µM (active) | EC50 [22]: 2.38 µM (active) | EC50 (H4): 0.108 µM (active) | EC50 [4]: < 0.1 µM (active) | EC50 [23]: 0.246 µM (active)

c1ccc(-c2cc(NCCCN3CCCCC3)c3ccccc3n2)cc1
IC50 [24]: 1.56 µM (active) | IC50 [25]: 2.98 µM (active)

— ChEMBL document CHEMBL1201862, “PubChem BioAssay data set” (2004)
